The structures appear in SMILES notation. A value given as a limit tells only on which side of the number the result lay.

Format in all cases: cell-based
The target in one test is T1, EGFR WT (Ba/F3 cells) (Homo sapiens, UniProt P00533).
T1 construct: expressed in transfected cells; host or cells: Ba/F3 (murine pro-B cells), retroviral transduction, puromycin selection, maintained with EGF
In words: Inhibitor activity on EGFR-dependent cell growth (CellTiter-Glo, 72 h), Ba/F3 EGFR WT. Conditions: read-out: BaF3 WT IC50. The essentials: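 This growth assay used Ba/F3 cells that depend on wild-type EGFR and are kept in EGF without IL3. Compounds were made up as 10 mM DMSO stocks and diluted 3-fold over 10 points. 120 nL went onto 600 cells/well. After 72 hours, 40 μL CellTiter-Glo was added and luminescence read on EnVision after 30 min.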

The target in test [1] is T2, EGFR exon 20 ASV Ins V769_D770 (Ba/F3 cells) (Homo sapiens, UniProt P00533, INS769ASV).
T2 construct: expressed in transfected cells; host or cells: Ba/F3 (murine pro-B cells), retroviral transduction, puromycin selection, IL3-independent pool
T2 sequence (P00533 with tags, fused parts or gaps INS769ASV): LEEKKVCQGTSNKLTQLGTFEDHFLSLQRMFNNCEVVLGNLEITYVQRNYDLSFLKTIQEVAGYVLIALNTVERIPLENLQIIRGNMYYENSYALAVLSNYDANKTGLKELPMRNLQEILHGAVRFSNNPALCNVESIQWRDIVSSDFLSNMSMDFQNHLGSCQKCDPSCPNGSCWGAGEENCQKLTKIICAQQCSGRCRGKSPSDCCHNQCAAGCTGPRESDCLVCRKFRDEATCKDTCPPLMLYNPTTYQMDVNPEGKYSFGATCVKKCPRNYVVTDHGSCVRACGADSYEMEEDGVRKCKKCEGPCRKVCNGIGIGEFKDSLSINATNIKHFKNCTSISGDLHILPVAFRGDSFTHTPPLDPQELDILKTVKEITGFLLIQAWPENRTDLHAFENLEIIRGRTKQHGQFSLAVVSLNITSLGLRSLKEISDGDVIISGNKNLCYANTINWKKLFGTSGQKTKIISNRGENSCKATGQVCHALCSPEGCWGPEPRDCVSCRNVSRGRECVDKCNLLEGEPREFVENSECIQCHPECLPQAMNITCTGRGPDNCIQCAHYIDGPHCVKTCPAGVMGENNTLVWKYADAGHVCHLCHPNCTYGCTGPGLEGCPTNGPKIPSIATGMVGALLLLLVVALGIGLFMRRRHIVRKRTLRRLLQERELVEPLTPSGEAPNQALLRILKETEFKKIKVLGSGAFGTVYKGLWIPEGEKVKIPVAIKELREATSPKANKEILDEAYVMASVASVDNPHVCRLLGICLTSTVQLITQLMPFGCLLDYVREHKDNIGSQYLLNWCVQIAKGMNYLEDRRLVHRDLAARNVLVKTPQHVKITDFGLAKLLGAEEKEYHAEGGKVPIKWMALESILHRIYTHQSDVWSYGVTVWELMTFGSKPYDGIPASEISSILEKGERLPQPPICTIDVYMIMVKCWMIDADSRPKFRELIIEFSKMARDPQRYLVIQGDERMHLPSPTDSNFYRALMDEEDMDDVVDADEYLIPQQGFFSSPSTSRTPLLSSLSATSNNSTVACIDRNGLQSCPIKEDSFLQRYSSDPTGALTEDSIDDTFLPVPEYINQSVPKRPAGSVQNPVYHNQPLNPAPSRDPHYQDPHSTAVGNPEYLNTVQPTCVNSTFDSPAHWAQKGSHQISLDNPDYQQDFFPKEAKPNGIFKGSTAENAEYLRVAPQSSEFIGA
In words: Inhibitor activity on EGFR-dependent cell growth (CellTiter-Glo, 72 h), Ba/F3 EGFR exon 20 ASV Ins. Conditions: read-out: BaF3 ASV IC50. The essentials:
(§1)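 IC50s derive from a sigmoidal dose–response fit of CellTiter-Glo signal. The signal was normalised between […]-treated cells and cell-free medium. Ba/F3 mutant-EGFR cells, seeded at 400–800/well depending on the line, had 72 h of exposure to a 10-point, 3-fold compound series.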

Test [2] has as its target T3, EGFR exon 20 SVD Ins D770_N771 (Ba/F3 cells) (Homo sapiens, UniProt P00533, INS770SVD).
T3 construct: expressed in transfected cells; host or cells: Ba/F3 (murine pro-B cells), retroviral transduction, puromycin selection, IL3-independent pool
Kind of test: Inhibitor activity on EGFR-dependent cell growth (CellTiter-Glo, 72 h), Ba/F3 EGFR exon 20 SVD Ins. Conditions: read-out: BaF3 SVD IC50. The essentials:
as §1

Test [3] has as its target T4, EGFR exon 20 FQEA Ins A763_V764 (Ba/F3 cells) (Homo sapiens, UniProt P00533, INS763FQEA).
T4 construct: expressed in transfected cells; host or cells: Ba/F3 (murine pro-B cells), retroviral transduction, puromycin selection, IL3-independent pool
In words: Inhibitor activity on EGFR-dependent cell growth (CellTiter-Glo, 72 h), Ba/F3 EGFR exon 20 FQEA Ins. Conditions: read-out: BaF3 FQEA IC50. The method in brief:
as §1

Test [4] has as its target T2, EGFR exon 20 ASV Ins V769_D770 (Ba/F3 cells). Kind of test: Inhibitor activity on EGFR phosphorylation (pEGFR AlphaLISA, 2 h), Ba/F3 EGFR exon 20 ASV Ins. Conditions: EGFR phosphorylation, AlphaLISA, 2 hours; read-out: ASV IC50 (pEGFR). An excerpt: Example B. Inhibitor Activity on EGFR phosphorylation (pEGFR)
EGFR mutant Ba/F3 cells were generated by transduction with retrovirus containing vectors expressing EGFR L858R, EGFR exon 19del, EGFR L858R/C797S, EGFR exon 20 NPG Ins D770_N771, EGFR exon 20 ASV Ins V769_D770, or EGFR exon 20 SVD Ins D770_N771 genes along with a puromycin selection marker. Transduced cells are selected with puromycin for 7 days and are then be transferred into culture media without Interleukin 3 (IL3). Surviving cells are confirmed to express EGFR by Western blot and maintained as a pool. CUTO14 cells were obtained from Dr. Robert C. Doebele at the University of Colorado. The IC50 date are included in Table 6 and Table 7.
1.1 Cells are harvested from flask into cell culture medium and the cell number counted.
1.2 Cells are diluted with culture medium to the desired density and 40 μL of cell suspension is added into each well of 384-well cell culture plate and the seeding density is 50K cells/well (Ba/F3) or 12.5K cells/well (CUTO14).
2 Compound Preparation and Treatment
2.1 Test compounds are dissolved to 10 mM in a DMSO stock solution. 45 μL of stock solution is transferred to a 384 polypropylene plate (pp-plate). Perform 3-fold, 10-point dilution via transferring 15 μL compound into 30 μL DMSO using a TECAN (EVO200) liquid handler.
2.2 Spin plates at room temperature at 1,000 RPM for 1 minute.
2.3 Transfer 5 nL of diluted compound from compound source plate into the cell plate.
2.4 After compound treatment for 2 hours, perform pEGFR detection by AlphaLISA for compound treatment plates as described in “Detection” section.
3 Detection by pEGFR AlphaLISA (Perkin-Elmer)
3.1 Plates are removed from incubators and equilibrated at room temperature for 10 minutes, and media was removed
3.2 10 μL of lysis buffer is added and plates shaken at 600 rpm for 1 hr.
3.3 Prepare acceptor mix just before use and dispense 5 μL of acceptor mix to all the wells. Shake 350 rpm for Ihr in the dark
3.4 Prepare donor mix under low light conditions prior to use. Dispense 5 μL of donor mix to all the wells. Mix well on the shaker, seal and wrap in aluminum foil and incubate 1.5 hrs at room temperature in the dark
3.5 Transfer 18.5 μL mixture to OptiPlate 384, and read using an Envision. The IC50 date were included in Table 6 and Table 7.

T3 sequence (P00533 with tags, fused parts or gaps INS770SVD): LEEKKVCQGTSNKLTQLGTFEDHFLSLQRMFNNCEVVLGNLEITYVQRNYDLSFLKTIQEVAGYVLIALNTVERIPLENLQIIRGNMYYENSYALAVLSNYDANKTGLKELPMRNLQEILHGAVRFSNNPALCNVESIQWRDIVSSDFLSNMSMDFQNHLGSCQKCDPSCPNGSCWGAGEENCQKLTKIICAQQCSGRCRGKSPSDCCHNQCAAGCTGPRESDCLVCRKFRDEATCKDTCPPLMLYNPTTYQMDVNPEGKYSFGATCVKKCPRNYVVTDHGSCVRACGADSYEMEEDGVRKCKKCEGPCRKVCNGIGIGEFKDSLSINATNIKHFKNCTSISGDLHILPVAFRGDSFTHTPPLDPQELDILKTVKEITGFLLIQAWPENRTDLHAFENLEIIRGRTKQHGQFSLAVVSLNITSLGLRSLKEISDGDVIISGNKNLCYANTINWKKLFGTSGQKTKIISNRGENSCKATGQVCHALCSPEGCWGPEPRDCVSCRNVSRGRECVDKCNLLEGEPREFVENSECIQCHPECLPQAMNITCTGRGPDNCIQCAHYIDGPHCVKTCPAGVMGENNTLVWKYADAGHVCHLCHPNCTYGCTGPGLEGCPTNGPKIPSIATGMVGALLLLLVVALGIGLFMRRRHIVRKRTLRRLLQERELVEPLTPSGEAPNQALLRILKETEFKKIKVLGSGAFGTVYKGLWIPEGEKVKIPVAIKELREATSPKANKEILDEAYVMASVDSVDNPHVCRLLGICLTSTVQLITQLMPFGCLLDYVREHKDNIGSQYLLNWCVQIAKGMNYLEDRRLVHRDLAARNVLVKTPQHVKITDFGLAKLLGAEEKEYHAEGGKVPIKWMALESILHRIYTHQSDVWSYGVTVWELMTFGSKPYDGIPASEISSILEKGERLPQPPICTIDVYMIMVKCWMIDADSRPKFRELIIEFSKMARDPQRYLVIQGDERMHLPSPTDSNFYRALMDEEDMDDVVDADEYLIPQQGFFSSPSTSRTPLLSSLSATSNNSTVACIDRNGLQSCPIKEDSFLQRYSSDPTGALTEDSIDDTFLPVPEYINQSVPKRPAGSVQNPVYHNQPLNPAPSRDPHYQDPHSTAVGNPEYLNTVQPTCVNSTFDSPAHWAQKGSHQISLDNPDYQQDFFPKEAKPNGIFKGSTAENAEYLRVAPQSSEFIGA
T1 sequence (P00533 25-1210): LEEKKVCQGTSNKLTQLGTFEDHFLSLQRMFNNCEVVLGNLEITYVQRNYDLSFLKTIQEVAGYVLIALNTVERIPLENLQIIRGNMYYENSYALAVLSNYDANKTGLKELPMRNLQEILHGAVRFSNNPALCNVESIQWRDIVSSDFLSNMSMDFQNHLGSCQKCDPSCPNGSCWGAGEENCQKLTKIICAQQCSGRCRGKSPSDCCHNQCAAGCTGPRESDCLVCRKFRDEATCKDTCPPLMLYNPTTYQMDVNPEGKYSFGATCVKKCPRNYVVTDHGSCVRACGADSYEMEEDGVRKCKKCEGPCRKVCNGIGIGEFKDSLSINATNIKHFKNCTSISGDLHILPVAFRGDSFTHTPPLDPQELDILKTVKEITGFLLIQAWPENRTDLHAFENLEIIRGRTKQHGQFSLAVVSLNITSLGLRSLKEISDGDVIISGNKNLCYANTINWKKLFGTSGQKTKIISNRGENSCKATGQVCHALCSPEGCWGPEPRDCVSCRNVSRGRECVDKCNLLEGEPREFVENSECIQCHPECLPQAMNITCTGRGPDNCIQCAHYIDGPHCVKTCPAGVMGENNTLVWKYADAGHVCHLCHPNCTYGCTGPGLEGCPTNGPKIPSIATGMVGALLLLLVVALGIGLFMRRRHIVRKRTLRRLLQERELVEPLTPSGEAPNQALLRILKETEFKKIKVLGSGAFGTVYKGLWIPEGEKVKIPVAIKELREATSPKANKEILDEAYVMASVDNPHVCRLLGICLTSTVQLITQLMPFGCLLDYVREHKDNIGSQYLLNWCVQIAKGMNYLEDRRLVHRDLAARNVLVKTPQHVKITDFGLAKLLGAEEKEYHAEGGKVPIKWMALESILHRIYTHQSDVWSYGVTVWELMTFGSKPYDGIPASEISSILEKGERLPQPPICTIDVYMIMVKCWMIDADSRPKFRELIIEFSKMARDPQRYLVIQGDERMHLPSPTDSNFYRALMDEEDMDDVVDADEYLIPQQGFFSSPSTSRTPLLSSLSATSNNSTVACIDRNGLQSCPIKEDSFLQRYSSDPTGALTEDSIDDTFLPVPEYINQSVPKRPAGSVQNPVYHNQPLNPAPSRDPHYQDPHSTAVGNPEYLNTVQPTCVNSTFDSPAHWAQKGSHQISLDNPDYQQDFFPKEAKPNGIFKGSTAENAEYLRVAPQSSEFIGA
T4 sequence (P00533 with tags, fused parts or gaps INS763FQEA): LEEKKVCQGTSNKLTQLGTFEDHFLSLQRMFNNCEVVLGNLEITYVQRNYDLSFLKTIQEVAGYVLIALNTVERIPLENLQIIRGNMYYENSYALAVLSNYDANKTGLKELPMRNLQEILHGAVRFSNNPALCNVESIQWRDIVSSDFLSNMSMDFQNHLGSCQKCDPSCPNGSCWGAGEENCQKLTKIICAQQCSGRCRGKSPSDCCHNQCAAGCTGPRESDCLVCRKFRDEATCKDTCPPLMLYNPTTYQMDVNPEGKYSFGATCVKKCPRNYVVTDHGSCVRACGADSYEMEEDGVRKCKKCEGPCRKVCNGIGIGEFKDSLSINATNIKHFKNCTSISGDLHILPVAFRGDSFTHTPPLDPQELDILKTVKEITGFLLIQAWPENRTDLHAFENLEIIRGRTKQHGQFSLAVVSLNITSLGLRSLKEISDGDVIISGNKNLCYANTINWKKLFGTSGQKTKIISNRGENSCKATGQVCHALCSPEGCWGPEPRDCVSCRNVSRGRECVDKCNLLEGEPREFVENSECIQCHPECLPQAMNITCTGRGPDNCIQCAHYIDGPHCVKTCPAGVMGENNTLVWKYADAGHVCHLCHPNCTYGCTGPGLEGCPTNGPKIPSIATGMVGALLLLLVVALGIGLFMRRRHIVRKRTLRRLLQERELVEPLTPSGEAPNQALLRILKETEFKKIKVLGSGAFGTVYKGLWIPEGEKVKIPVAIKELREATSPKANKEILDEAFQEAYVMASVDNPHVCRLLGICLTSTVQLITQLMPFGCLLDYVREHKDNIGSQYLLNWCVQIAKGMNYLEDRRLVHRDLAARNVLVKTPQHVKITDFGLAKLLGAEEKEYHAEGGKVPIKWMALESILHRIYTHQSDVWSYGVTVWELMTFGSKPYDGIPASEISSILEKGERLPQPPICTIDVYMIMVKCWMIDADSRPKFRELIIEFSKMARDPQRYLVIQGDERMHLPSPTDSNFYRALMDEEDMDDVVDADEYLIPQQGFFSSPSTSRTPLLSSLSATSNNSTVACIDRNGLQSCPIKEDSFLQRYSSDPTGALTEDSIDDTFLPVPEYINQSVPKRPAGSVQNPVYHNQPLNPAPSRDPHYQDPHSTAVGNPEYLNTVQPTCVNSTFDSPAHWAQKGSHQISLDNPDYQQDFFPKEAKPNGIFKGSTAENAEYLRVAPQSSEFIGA

On to `COc1c(Cl)cccc1Nc1c(-c2ccnc(NC3CC(F)(F)C3)n2)[nH]c2c1C(=O)NCC2` [Compound 712, 3-[(3-chloro-2-methoxyphenyl)amino]-2-[2-[(3,3-difluorocyclobutyl)amino]pyrimidin-4-yl]-1H,5H,6H,7H-pyrrolo[3,2-c] pyridin-4-one], for which the IC50 at EGFR WT (Ba/F3 cells) is more than 1 µM; in test [1], more than 1 µM; in test [2], more than 1 µM; in test [3] it was more than 1 µM; in test [4] it was 0.1 to 1 µM.

For `CSc1c(Cl)cccc1Nc1c(-c2ccnc(N)n2)[nH]c2c1C(=O)NCC2` [Compound 715, 2-(2-aminopyrimidin-4-yl)-3-[[3-chloro-2-(methylsulfanyl)phenyl]amino]-1H,5H,6H,7H-pyrrolo[3,2-c]pyridin-4-one], the IC50 on EGFR WT (Ba/F3 cells) is more than 1 µM; in test [1], 0.1 to 1 µM; in test [2] it was 0.1 to 1 µM; in test [3], 0.1 to 1 µM; in test [4], less than 0.1 µM.

As for `Cc1ccc(F)cc1Nc1c(-c2ccnc(N)n2)[nH]c2c1C(=O)NCC2` [compound 196], the IC50 on EGFR WT (Ba/F3 cells) was more than 1 µM; in test [1], more than 1 µM; in test [2] it was more than 1 µM; in test [3], 0.1 to 1 µM; in test [4], 0.1 to 1 µM.

For the compound `Cc1cc(F)ccc1Nc1c(-c2ccnc(N)n2)[nH]c2c1C(=O)NCC2` [compound 197], the IC50 (on EGFR WT (Ba/F3 cells); in test [1]; in test [2]; in test [3]; in test [4]) was more than 1 µM in each case.

As to `Cc1cccc(F)c1Nc1c(-c2ccnc(N)n2)[nH]c2c1C(=O)NCC2` [compound 198], the IC50 (on EGFR WT (Ba/F3 cells); in test [1]; in test [2]; in test [3]; in test [4]) was more than 1 µM throughout.

With `N#Cc1c(F)cccc1Nc1c(-c2ccnc(N)n2)[nH]c2c1C(=O)NCC2` [compound 200], the IC50 on EGFR WT (Ba/F3 cells) is more than 1 µM; in test [1], more than 1 µM; in test [2] it was more than 1 µM; in test [3], more than 1 µM; in test [4], 0.1 to 1 µM.

Take `Cc1c(C#N)cccc1Nc1c(-c2ccnc(N)n2)[nH]c2c1C(=O)NCC2` [compound 201]: the IC50 (on EGFR WT (Ba/F3 cells); in test [1]; in test [2]; in test [3]; in test [4]) was more than 1 µM in each case.

For the compound `Nc1nccc(-c2[nH]c3c(c2Nc2ccc(F)c(F)c2)C(=O)NCC3)n1` [compound 203], the IC50 at EGFR WT (Ba/F3 cells) is more than 1 µM; in test [1], more than 1 µM; in test [2], more than 1 µM; in test [3], 0.1 to 1 µM; in test [4], more than 1 µM.

Turning to `Nc1nccc(-c2[nH]c3c(c2Nc2cc(F)cc(F)c2)C(=O)NCC3)n1` [compound 204], the IC50 (on EGFR WT (Ba/F3 cells); in test [1]; in test [2]; in test [3]; in test [4]) was 0.1 to 1 µM throughout.

In the case of `COc1c(Cl)cccc1Nc1c(-c2ccnc(NCc3ccccc3)n2)[nH]c2c1C(=O)NCC2` [compound 209], the IC50 was more than 1 µM on EGFR WT (Ba/F3 cells); 0.1 to 1 µM in test [1]; 0.1 to 1 µM in test [2]; more than 1 µM in test [3]; 0.1 to 1 µM in test [4].

For `COc1c(F)cccc1Nc1c(-c2ccnc(N)c2)[nH]c2c1C(=O)NCC2` [compound 242], the IC50 on EGFR WT (Ba/F3 cells) is more than 1 µM; in test [1], more than 1 µM; in test [2], more than 1 µM; in test [3], more than 1 µM; in test [4], 0.1 to 1 µM.

As for `COc1c(F)cccc1Nc1c(-c2ccncn2)[nH]c2c1C(=O)NCC2` [compound 244], the IC50 at EGFR WT (Ba/F3 cells) was more than 1 µM; in test [1], more than 1 µM; in test [2], more than 1 µM; in test [3], more than 1 µM; in test [4] it was 0.1 to 1 µM.

Turning to `COc1c(F)cccc1Nc1c(-c2nnc3cc(C)ccn23)[nH]c2c1C(=O)NCC2` [compound 246], the IC50 (at EGFR WT (Ba/F3 cells); in test [1]; in test [2]; in test [3]; in test [4]) was more than 1 µM throughout.

The values are drawn from patent US20240101576A1, “HETEROCYCLIC INHIBITORS OF EGFR AND/OR HER2, FOR USE IN THE TREATMENT OF CANCER” (Scorpion Therapeutics, Inc., priority 2020, published 2024).
